According to the NIST ThermoML archive (doi:10.1021/je700598v):
± gives the expanded uncertainty stated by the source.

Test: cn = amount concentration of the nth substance listed, in mol/dm3
Conditions: 101 kPa, Liquid; for viscosity: Capillary tube (Ostwald / Ubbelohde) method; for mass density: Pycnometric method; for binary diffusion coefficient: Taylor dispersion method

## OC[C@H]1O[C@@H]2O[C@H]3[C@H](O)[C@@H](O)[C@@H](O[C@H]4[C@H](O)[C@@H](O)[C@@H](O[C@H]5[C@H](O)[C@@H](O)[C@@H](O[C@H]6[C@H](O)[C@@H](O)[C@@H](O[C@H]7[C@H](O)[C@@H](O)[C@@H](O[C@H]8[C@H](O)[C@@H](O)[C@@H](O[C@H]9[C@H](O)[C@@H](O)[C@@H](O[C@H]1[C@H](O)[C@H]2O)O[C@@H]9CO)O[C@@H]8CO)O[C@@H]7CO)O[C@@H]6CO)O[C@@H]5CO)O[C@@H]4CO)O[C@@H]3CO [γ-cyclodextrin] + O
298.15 K, c1 = 0.00186
  viscosity: 0.9975 ± 0.0079 mPa·s
  mass density: 896.2 ± 0.6 kg/m3
298.15 K, c1 = 0.004979
  viscosity: 0.999 ± 0.0079 mPa·s
  mass density: 906.1 ± 0.6 kg/m3
298.15 K, c1 = 0.007923
  viscosity: 1.001 ± 0.008 mPa·s
  mass density: 919.2 ± 0.61 kg/m3
298.15 K, c1 = 0.009981
  viscosity: 1.002 ± 0.008 mPa·s
  mass density: 927 ± 0.62 kg/m3
298.15 K, c1 = 0.002
  binary diffusion coefficient: 3.57e-10 m2/s
298.15 K, c1 = 0.005
  binary diffusion coefficient: 3.55e-10 m2/s
298.15 K, c1 = 0.008
  binary diffusion coefficient: 3.53e-10 m2/s
298.15 K, c1 = 0.01
  binary diffusion coefficient: 3.52e-10 m2/s
310.15 K, c1 = 0.00186
  viscosity: 0.9938 ± 0.0079 mPa·s
  mass density: 697 ± 0.54 kg/m3
310.15 K, c1 = 0.004979
  viscosity: 0.9949 ± 0.0079 mPa·s
  mass density: 708.2 ± 0.55 kg/m3
310.15 K, c1 = 0.007923
  viscosity: 0.997 ± 0.0079 mPa·s
  mass density: 717.2 ± 0.57 kg/m3
310.15 K, c1 = 0.009981
  viscosity: 0.9984 ± 0.008 mPa·s
  mass density: 723.4 ± 0.56 kg/m3
310.15 K, c1 = 0.002
  binary diffusion coefficient: 4.8e-10 m2/s
310.15 K, c1 = 0.005
  binary diffusion coefficient: 4.7e-10 m2/s
310.15 K, c1 = 0.008
  binary diffusion coefficient: 4.61e-10 m2/s
310.15 K, c1 = 0.01
  binary diffusion coefficient: 4.53e-10 m2/s
